Data taken from patent US20120238488A1, “COMPOUNDS AND METHODS FOR TREATING NEOPLASIA” (priority 2009, published 2012).
Like-named read-outs stand apart in the source and are kept apart here.

How the values were obtained:
[1] = system: HCT116 colon cancer, PC3 and DU145 prostate cancer cell lines; experiment: MTT proliferation/viability assay; type: cell-based; details: 72 h, FIGS. 1A-1D, HCT116 only compound 120
Procedure: All assays were performed in triplicate.
The effect of the different compounds on the proliferation and viability of cancer cell lines was tested. Compound 120 was tested in one colon cancer cell line (HCT116), and compound Nos. 120, 12, 61, 1, and 56 were tested in two prostate cancer cell lines (PC3 and DU145). […] This colorimetric assay uses the reduction of MTT to formazan as a measure of metabolic activity. Untreated cells cultured in the presence of serum were used as a negative control.

[2] = system: 22 different cell lines, nine tumor panels (lung, melanoma, ovary, prostate, CNS, breast, pancreas colon and renal); experiment: SRB assay, all tumor cell line panels (summary statements); type: cell-based, human; details: for viability and/or cell proliferation of neoplastic cell lines: lung, breast, CNS, colon, prostate, ovary, pancreas, kidney and melanoma lines, including a multidrug resistant cell line
Procedure: (§1) SRB assays were performed according to standard National Cancer Institute Guidelines. Briefly, human tumor cells from different cancer panels were seeded into 96 well plates in 100 μL (plating densities ranging from 5-40,000 cells/well depending on the doubling time of individual cell lines) in serum-containing media for twenty-four hours prior to the addition of the compounds to be assayed. After 24 hours, one plate of each cell line was fixed in situ with trichloroacetic acid (TCA). The fixed slides were used to determine the cell population for each cell line at the time of drug addition (Tz). Each compound to be tested was solubilized in DMSO and the desired concentration was then added to the medium and diluted serially 1:10 to provide a total of five or ten drug concentrations plus control (in a final volume of 200 μL). The starting dose before any dilution was 100 uM for all compounds.
(§2) Following drug addition, each culture was incubated for forty-eight hours. The assay was terminated with the addition of cold TCA. The supernatant was discarded, and the plates were washed with tap water and air dried. Sulforhodamine B (SRB) solution was then added to each well. After staining, the bound stain was solubilized and the absorbance was read on an automated plate reader at a wavelength of 515 nm.
(§3) Using the absorbance measurements [time zero, (Tz), control growth, (C), and test growth in the presence of drug at the ten concentration levels (Ti)], the percentage growth was calculated at each of the drug concentrations levels. Percentage growth inhibition was calculated as:
Three dose response parameters were calculated for each experimental agent. […] The drug concentration resulting in total growth inhibition (TGI) was calculated from Ti=Tz. The LC50 (concentration of drug resulting in a 50% reduction in the measured protein at the end of the drug treatment as compared to that at the beginning) indicating a net loss of cells following treatment was calculated from [(Ti−Tz)/Tz]×100=−50.
Each of these parameters in Table 4 was calculated in a sulforhodamine B (SRB) assay, which provides a colorimetric measure of a compound's anti-cancer activity. SRB assays were performed with compounds of the invention in 22 different cell lines (shaded in light gray in Table 4), which represent nine different tumor panels (lung, melanoma, ovary, prostate, CNS, breast, pancreas colon and renal). […] Paclitaxel was added as a non-Na^+K^+-ATPase inhibitor control.

[3] = system: U251 (CNS); experiment: SRB assay, U251; type: cell-based, human; details: for CC50 / GI50: Homo sapiens; for CC50: read-out: LC50
Procedure: as §1, §2, §3
(§4) [(Ti−Tz)/(C−Tz)]×100 for concentrations for which Ti>/=Tz
(§5) [(Ti−Tz)/Tz]×100 for concentrations for which Ti<Tz.
(§6) Three dose response parameters were calculated for each experimental agent. Growth inhibition of 50% (GI50) was calculated from [(Ti−Tz)/(C−Tz)]×100=50, which was the drug concentration resulting in a 50% reduction in the net protein increase (as measured by SRB staining) in control cells during the drug. The drug concentration resulting in total growth inhibition (TGI) was calculated from Ti=Tz. The LC50 (concentration of drug resulting in a 50% reduction in the measured protein at the end of the drug treatment as compared to that at the beginning) indicating a net loss of cells following treatment was calculated from [(Ti−Tz)/Tz]×100=−50.
(§7) Values were calculated for each of these three parameters when the level of activity was reached; however, if the effect was not reached or was exceeded, the value for that parameter was expressed as greater or less than the maximum or minimum concentration tested.
(§8) Table 4 summarizes results characterizing the effects of compound Nos. 120, 12, 61, 1, and 56 on GI50, which measures the cell growth inhibitory power of the compound, TGI, which measures cytostatic effect (TGI) and LC50, which signifies cytotoxic effect. Each of these parameters in Table 4 was calculated in a sulforhodamine B (SRB) assay, which provides a colorimetric measure of a compound's anti-cancer activity. SRB assays were performed with compounds of the invention in 22 different cell lines (shaded in light gray in Table 4), which represent nine different tumor panels (lung, melanoma, ovary, prostate, CNS, breast, pancreas colon and renal). Ouabain and digoxin were used as controls. Paclitaxel was added as a non-Na^+K^+-ATPase inhibitor control.

[4] = system: H160 (Lung); experiment: SRB assay, H160; type: cell-based, human; details: 48 h; for TGI / GI50: H160, SRB; for CC50 / GI50: Homo sapiens; for CC50: read-out: LC50
Procedure: as §1, §2, §3, §4, §5, §6, §7, §8

[5] = system: HCT15 (Colon); experiment: SRB assay, HCT15; type: cell-based, human; details: for TGI / GI50: HCT15, SRB, 48 h; for CC50 / GI50: Homo sapiens; for CC50: HCT-15, 48 h, read-out: LC50; for GI50: HCT-15
Procedure: as §1, §2, §3, §4, §5, §6, §7, §8

[6] = system: LOXIMVI (Melanoma); experiment: SRB assay, LOXIMVI; type: cell-based, human; details: 48 h; for CC50 / GI50: Homo sapiens, LOX IMVI; for CC50: read-out: LC50; for GI50 / TGI: LOXIMVI, SRB
Procedure: as §1, §2, §3, §4, §5, §6, §7, §8

[7] = system: IGROV1 (Ovary); experiment: SRB assay, IGROV1; type: cell-based, human; details: for CC50 / GI50: Homo sapiens; for CC50: IGROV-1, 48 h, read-out: LC50; for GI50: IGROV-1; for GI50 / TGI: IGROV1, SRB, 48 h
Procedure: as §1, §2, §3, §4, §5, §6, §7, §8

[8] = system: MCF7 (Breast); experiment: SRB assay, MCF7; type: cell-based, human; details: for CC50 / GI50: Homo sapiens; for CC50: MCF7, 48 h, read-out: LC50; for GI50 / TGI: MCF7, SRB, 48 h
Procedure: as §1, §2, §3, §4, §5, §6, §7, §8

[9] = system: SU8686 (Pancreas); experiment: SRB assay, SU8686; type: cell-based, human; details: for CC50 / GI50: Homo sapiens; for CC50: SU.86.86, 48 h, read-out: LC50; for GI50: SU.86.86; for GI50 / TGI: SU8686, SRB, 48 h
Procedure: as §1, §2, §3, §4, §5, §6, §7, §8

[10] = U-251, U251, SRB, 48 h, read-out: GI50

| Structure (SMILES) | inhibition of cell proliferation and viability (MTT) [1] | GI50 action in all cell line panels tested (in words) ([2]; SRB, all cell line panels) | viability and/or cell proliferation of neoplastic cell lines [2] | CC50 ([3]; U-251, 48 h) [nM] | GI50 [3, 10] [nM] | TGI [4] [nM] | CC50 [4] [nM] | GI50 [4] [nM] | TGI [5] [nM] | CC50 [5] [nM] | GI50 [5] [nM] | CC50 [6] [nM] | GI50 [6] [nM] | TGI [6] [nM] | CC50 [7] [nM] | GI50 [7] [nM] | TGI [7] [nM] | CC50 [8] [nM] | GI50 [8] [nM] | TGI [8] [nM] | other results |
| --- | --- | --- | --- | --- | --- | --- | --- | --- | --- | --- | --- | --- | --- | --- | --- | --- | --- | --- | --- | --- | --- |
| C[C@]12CCC(=NOCCN)CC1CCC1C2CC[C@]2(C)C(=O)CCC12 (stereo partly drawn) [Compound 1, (10S,13S)-3-(2-aminoethoxyimino)-10,13-dimethyltetradecahydro-1H-cyclopenta[a]phenanthren-17(2H)-one] | strong inhibition of cell proliferation and viability | nanomolar GI50 action | reduced the viability and/or cell proliferation |  |  |  |  |  |  |  |  |  |  |  |  |  |  |  |  |  |  |
| C[C@]12CCC(=NOCCN)C=C1CCC1C2CC[C@]2(C)C(=O)CCC12 (stereo partly drawn) [Compound 12, (10R,13S)-3-(2-aminoethoxyimino)-10,13-dimethyl-2,3,7,8,9,10,11,12,13,14,15,16-dodecahydro-1H-cyclopenta[a]phenanthren-17(6H)-one] | strong inhibition of cell proliferation and viability | mostly single-digit micromolar GI50 action | reduced the viability and/or cell proliferation | 8610 | 3090 | 5860 | 8730 | 2990 | 6700 | 9610 | 3790 | ≥ 117000 | 660 | 24060 | 68400 | 5370 | 12380 | 9470 | 3790 | 6630 | TGI ([3]; U251, SRB, 48 h): 5850 nM |
| C[C@]12CCC(=NOC3CCNC3)CC1CCC1C2CC[C@]2(C)C(=O)CCC12 (stereo partly drawn) [Compound 56, (10S,13S)-10,13-dimethyl-3-(pyrrolidin-3-yloxyimino)tetradecahydro-1H-cyclopenta[a]phenanthren-17(2H)-one] | strong inhibition of cell proliferation and viability | nanomolar GI50 action | reduced the viability and/or cell proliferation |  |  |  |  |  |  |  |  |  |  |  |  |  |  |  |  |  | GI50 ([2]; Homo sapiens, SRB, all cell line panels, read-out: GI50 activity for all cell line panels tested): < 100 nM |
| C[C@]12CCC(=NOC3CCNC3)C=C1CCC1C2CC[C@]2(C)C(=O)CCC12 (stereo partly drawn) [Compound 61, (10R,13S)-10,13-dimethyl-3-(pyrrolidin-3-yloxyimino)-2,3,7,8,9,10,11,12,13,14,15,16-dodecahydro-1H-cyclopenta[a]phenanthren-17(6H)-one] | strong inhibition of cell proliferation and viability | nanomolar GI50 action | reduced the viability and/or cell proliferation |  |  |  |  |  |  |  |  |  |  |  |  |  |  |  |  |  |  |
| C[C@H]1O[C@@H](O[C@H]2[C@@H](O)C[C@H](O[C@H]3[C@@H](O)C[C@H](O[C@H]4CC[C@@]5(C)[C@H](CC[C@@H]6[C@@H]5C[C@@H](O)[C@]5(C)[C@@H](C7=CC(=O)OC7)CC[C@]65O)C4)O[C@@H]3C)O[C@@H]2C)C[C@H](O)[C@@H]1O [Digoxin, reference compound] |  |  |  | 610 |  | <80 | 300 | < 80 | 60 | 160 | 30 | > 100000 | 80 | >100000 | > 100000 | 40 | 350 | 400 | < 80 | 100 | TGI [3]: 100 nM; GI50 ([3]; U-251, 48 h): 20 nM; CC50 [9]: 630 nM; GI50 [9]: 30 nM; TGI [9]: 90 nM |
| CC(=O)O[C@H]1C(=O)[C@@]2(C)[C@H]([C@H](OC(=O)c3ccccc3)[C@]3(O)C[C@H](OC(=O)[C@H](O)[C@@H](NC(=O)c4ccccc4)c4ccccc4)C(C)=C1C3(C)C)[C@]1(OC(C)=O)CO[C@@H]1C[C@@H]2O [Paclitaxel, reference compound] |  |  |  | 6720 | < 1 | 3768.5 | > 10000 | < 100 | 852 | 12300 | 53 | 5180 | < 1 | 288 | 10600 | 1 | 3305 | > 10000 | < 100 | >10000 | TGI ([3]; U251, SRB, 48 h): 1745 nM; CC50 [9]: 16500 nM; GI50 [9]: 8 nM; TGI [9]: 7927 nM |
